Results from patent US11001615B2, “Mutated tau protein fragment and use thereof” (ADEL INC., priority 2016, dated 2021).
Entries after “also recorded” stand apart in the source; their conditions may differ. Ends that are not written are not given here.

Experiments:
Assay type in all cases: in vivo
[1] = test system: Tau-P301L dementia mice; assay: Western blotting of brain tissues for synapse-related proteins; settings: brain tissue
Experimental: (§1) JNPL3 mice expressing Tau-P301L mutant gene were purchased from Taconic, and back-crossed with C57bl/6 mice for five generations in the experimental animal room of the Asan Institute for Life Sciences. Then, the mice were raised under a specific pathogen free (SPE) condition. For active immunization, the mice were administered, for six months starting from three months after birth at intervals of two weeks, two weeks, four weeks, four weeks, five weeks, four weeks, and one week in this order, the four modified tau protein fragments prepared in Preparation Example 1 together with keyhole limpet hemocyanin (KLH) as a carrier and an aluminum adjuvant. At this time, administration was carried out through intraperitoneal injection (IP injection). The dementia mice which were actively immunized by administration of the K280-ac fragment were designated as Tau-P301L-K280-ac.
(§2) In order to identify a synapse-improving effect following administration of the K280-ac fragment, brain tissues of the Tau-P301L-K280-ac dementia mice, the P301L-K280-ac dementia mice, and the normal mice produced in Preparation Example 2 were extracted, and western blotting was performed.

[2] = test system: Tau-P301L dementia mice; assay: Immunohistochemical staining of brain tissues for tau proteins; settings: brain tissue
Experimental: as §1
as §2, with “tauopathy-alleviating” for “synapse-improving”, “and immunohistochemical staining were” for “was”

[3] = test system: Tau-P301L dementia mice; assay: Western blotting of cerebral cortex fractions (tau aggregation-mitigating effect); settings: cerebral cortex fractions (soluble or insoluble)
Experimental: as §1
In order to identify a tau aggregation-mitigating effect following administration of the K280-ac fragment, western blotting was performed with the cerebral cortices of the Tau-P301L-K280-ac dementia mice, the P301L-K280-ac dementia mice, and the normal mice produced in Preparation Example 2.

[4] = test system: Tau-P301L dementia mice; assay: Western blotting of brain tissues for tau proteins (tauopathy-alleviating effect); settings: brain tissue
Experimental: as §1
as §2, with “tauopathy-alleviating” for “synapse-improving”, “and immunohistochemical staining were” for “was”

[5] = test system: Tau-P301L dementia mice; assay: Water maze test; settings: 5th day, platform removed; normal mice about 3, Tau-P301L about 1
Experimental: as §1
An underwater maze test was performed to evaluate a learning and memory ability of the mice. […] Specifically, the underwater maze test took a total of 5 days. The mice were trained for 4 days in a state where a platform and a visual cue for the platform location are placed.
The learning was conducted by filling a swimming pool (1.4 m in diameter, 45 cm in depth) having a platform with water (29±0.5° C.) to a depth of about 26.5 cm, and then 1.5 L of whole milk powder was added to make water cloudy so that the mice can remember the platform with the cue only. Then, the mice were adapted to freely swim for 60 seconds and allowed to rest on the platform for 1 minute. The experiment was performed over a total of 12 times with 4 sets at three different starting positions. At the end of each test, 30 seconds of break time was given. At the end of one set, 30 to 45 minutes of break time was given.
After 4 days of learning, the test was performed on the 5th day. In the experiment for evaluation, the platform was not placed, and the number of staying in the area where the platform has been placed was measured in order to identify whether the mice visit well the platform location using the cue only. The test time was set for the mice to arrive at the location where the platform had been placed within one minute. If the mice fail to arrive at the platform location within one minute, the mice were removed out of the swimming pool.

[6] = Antibody production after primary and secondary boosting (vaccine comparison); settings: compared with N-terminal fragment of tau protein
Experimental: In addition, in order to identify whether the K280-ac fragment is effective as a vaccine, the N-terminal fragment and the K280-ac fragment of the tau protein having the amino acid sequence represented by SEQ ID NO: 31 were administered, and primary boosting and secondary boosting were performed. Then, these fragments were compared in terms of antibody production.

[7] = test system: Tau-P301L dementia mice; assay: Forced swimming test; settings: second day, 5 minutes
Experimental: as §1
A forced swimming test was conducted to identify a depression-ameliorating effect in the Tau-P301L dementia mice produced in Preparation Example 2. The experiment was conducted for a total of 2 days. […] An index to swim in water (Swimming/S), an index to climb up along the beaker wall (Climbing/C), and an index to float in water without any movement (Immobility/I) were respectively analyzed.

[8] = test system: Tau-P301L dementia mice; assay: MR spectroscopy (MRS) of the hippocampus; settings: hippocampus ROI; dementia mice about 50% decrease versus normal mice
Experimental: as §1
In order to identify a metabolic imaging index-improving effect following administration of the K280-ac fragment, MR spectroscopy (MRS) was performed on the Tau-P301L-K280-ac dementia mice, the P301L-K280-ac dementia mice, and the normal mice produced in Preparation Example 2. The hippocampus was designated as a region of interest (ROI) (FIG. 36).

[9] = test system: Tau-P301L dementia mice; assay: Rota-rod test; settings: 5th day
Experimental: as §1, with “Tau-P301L-K280-ac. […]” for “Tau-P301L-K280-ac.”
Specifically, the test was intended to measure how long the mice are able to stay on a rotating rotor. The mice were trained for 4 days and a motor ability thereof was measured on the 5th day. The training was repeated three times a day, during which the time to stay on the rotor and the final rpm were measured while increasing the rpm of the rotor. On the 5th day, the experiment was conducted under the same condition except that a result was measured only once without repeating (FIGS. 14 and 15).

[10] = test system: Tau-P301L dementia mice; assay: qPCR of brain tissues for inflammation-related genes; settings: brain tissue, compared with non-immunized dementia mice
Experimental: as §1
as §2, with “an inflammation-improving” for “a synapse-improving”, “qPCR” for “western blotting”, “performed for inflammation-related genes.” for “performed.”

[11] = test system: Tau-P301L dementia mice; assay: Memory tests and motor ability tests after active immunization (overall comparison); settings: comparison of the four modified tau protein fragments
Excerpt: Tau-P301L dementia mice were actively immunized by administration of the four modified tau protein fragments prepared in Preparation Example 1. Then, the Tau-P301L dementia mice were subjected to memory tests such as fear conditioning test and Morris water maze test, motor ability tests such as grip strength test and vertical test, and the like, so that improved effects obtained by the respective modified tau protein fragments were compared.
as §1

## Val-Gln-Ile-Ile-Asn-Lys-Lys-Leu-Asp-Leu-Ser-Asn (VQIINK(Ac)KLDLSN) [K280-ac]
[1]
  expression level of synapse-related proteins such as PSD95, NMDA receptor, synaptophysin, and synapsin-1: restored to that in the normal mice
[2]
  acetylated tau proteins: decreased
  phosphorylated tau proteins: decreased
[3]
  acetylated tau proteins: decreased
  entire tau protein: decreased
  phosphorylated tau proteins: decreased
[4]
  acetylated tau proteins: decrease
  phosphorylated tau proteins: decrease
[4]; Tau-P301L 2-fold increase versus normal mice
  tau proteins in which lysine, the 280th amino acid, is acetylated: decreased level of tau proteins which corresponds to that in the normal mice
[5]
  number of arrivals: about 3 times
[6]
  antibody production: higher antibody production than the N-terminal fragment
[7]
  depression-ameliorating effect (immobility, swimming, climbing): depression-ameliorating effect is exhibited
[8]
  N-acetyl-aspartyl-glutamic acid (NAAG): restored
[9]
  rota-rod rpm: increased to levels which correspond to those for the normal mice
  rota-rod time: increased to levels which correspond to those for the normal mice
[10]
  IFN-γ gene: decrease
  IL-4 gene: decrease
  IL-12 gene: increase
  IL-22 gene: decrease
[11]
  improved effect in memory and motor ability tests: improved effect at a level similar to that in normal mice; also recorded: restores a motor ability and a cognitive function
